Results: patent US12629384B2, “Use of 8,9-dihydrocannabidiol compounds” (The Regents of the University of California, priority 2019, dated 2026)

How the values were obtained:
[1] = system: PTZ-induced generalised seizures; experiment: acute PTZ-induced generalised seizures in rat (antiseizure study); type: in vivo; details: for maximum seizure severity, median (IQR) / percentage of animals that exhibited tonic-clonic seizures: 200 mg kg^-1 i.p. 1 h before PTZ 85 mg kg^-1; for maximum seizure severity, median (IQR): vehicle median 5, P<0.001 vs vehicle; for percentage of animals that exhibited tonic-clonic seizures: vs vehicle treated group, P<0.05
Experimental: Animals: Male, Wistar Han rats (70-110 g; Harlan, Bicester, UK) were housed on a 12 h light-dark cycle, with food and water available ad libitum. All experiments were conducted in accordance with the UK Animals (Scientific Procedures) Act, 1986 and ARRIVE guidelines for reporting experiments involving animals; 60 rats were used in total.
Drug administration: Animals were randomly divided into 5 groups of 12 animals per group and received either vehicle (ethanol, Cremophor EL and saline (0.9% w/v NaCl), 2:1:17), a positive control (cannabidiol; CBD; 200 mg kg^−1; Sigma-Aldrich, UK) or 8,9-dihydrocannabidiol (H2CBD; 50, 100 or 200 mg kg^−1) via i.p. injection 1 h prior to administration of the convulsant agent to achieve brain cannabinoid Tmax. The convulsant agent pentylenetetrazole (PTZ; 85 mg kg^−1 in 0.9% w/v NaCl) was administered i.p. 1 h after drug or vehicle treatment. Seizure activity was video recorded for 30 min and video records blinded before offline review and coding using a modified Racine scale (0, normal behaviour; 0.5, abnormal behaviour; 1, isolated myoclonic jerk; 2, atypical clonic seizure; 3, bilateral forelimb clonus; 3.5, bilateral forelimb clonus with body twist; 4, tonic-clonic seizure with suppressed tonic phase; 5, fully developed tonic-clonic seizure).
(§1) Statistics: Statistical procedures were performed using GraphPad Prism 7 (GraphPad Software, Inc., San Diego, CA, USA).
In the present study, 60 male, Wistar Han rats were randomly divided into 5 groups of 12 animals each and received either vehicle (ethanol, Cremophor EL, 0.9% w/v saline; 2:1:17), vehicle plus a positive control (CBD; 200 mg kg^−1), or vehicle plus H2CBD (50, 100, or 200 mg kg^−1) via intraperitoneal injection one hour prior to administration of the convulsant agent pentylenetetrazole (PTZ; 85 mg kg^−1 in 0.9% w/v saline).

[2] = blood and brain concentrations post-mortem by HPLC; type: in vivo, rat; details: samples 90 minutes after administration
Experimental: Assessment of bioanalytes: Chemicals and reagents. 4,4-Dichlorodiphenyltrichloroethane (DDT, CAS: 50-29-3) was used as the internal analytical standard (IS). HPLC grade n-hexane, acetonitrile, water and ascorbic acid were purchased from Sigma Aldrich (UK) and Fisher Scientific.
Analysis of plasma and brain samples: Stock standard solutions of CBD, H2CBD and DDT were prepared in acetonitrile (5 mg/ml and 1 mg/mL) and stored at −20° C. until use. These were further diluted in acetonitrile:water (62:38), to achieve calibration concentrations of 0.1, 0.2, 0.5, 1.5, 10 μg/mL. Plasma samples were prepared for HPLC using a previously validated method. Briefly, DDT ([…]) was added to 150 μL of rat plasma sample as internal standard and plasma proteins were precipitated by the addition of 600 μL of ice cold acetonitrile followed by water (600 μL), with 1 min vortexing between additions. n-Hexane (3 mL) was added to each tube and following a 5 min vortex, tubes were centrifuged at 1160×g for 15 min at 10° C. and the upper organic layer was carefully decanted by glass pipette and retained. The organic layer was evaporated to dryness under a stream of nitrogen at room temperature and reconstituted in 150 μL of the mixture of acetonitrile and water (62:38) prior to HPLC analysis.
For brain analysis, brains were weighed and 1.5× ice-cold solvent (90% acetonitrile; 10% water; 0.1% ascorbic acid) (w/v) was added followed by homogenization for 1 min. DDT (50 μg/ml) was added to each homogenized brain tissue as internal standard, samples were mixed and allowed to equilibrate overnight at −20° C. Samples were then centrifuged at 3500 rpm for 15 min and the top layer retained. Samples were dried by SpeedVac concentrator at room temperature (Savant SPD131DDA, ThermoFisher Scientific, UK) and reconstituted in 150 μL of the mixture of acetonitrile and water (62:38) for HPLC analysis.
HPLC analysis: An Agilent 1200 series HPLC (Hewlett-Packard, Palo Alto, CA, USA) equipped with a photodiode array detector was used for analysis. 30 μl of all samples were injected and separation was achieved using an ACE C18-PFP 150 mm×4.6 mm, 3 μm particle size column (Hichrom Ltd., Reading, UK), protected by an ACE C18-PFP […] guard cartridge. The mobile phase was a mixture of acetonitrile and water in a ratio of 62:38 (v/v). The flow rate was set at 1 mL/min and column temperature was maintained at 55° C. The absorbance of all compounds of interest (CBD and DH-CBD) was monitored at 220 nm.
as §1

[3] = system: rodent behavior; experiment: EPM test; type: in vivo, rat; details: 200 mg kg^-1 i.p., 45 minutes post injection; drug vs vehicle; p=0.49
Experimental: (§2) 12 adult male Sprague Dawley rats were divided at random into two groups of 6 animals each and received either vehicle (Kolliphor RH-40, dmso, 0.9% w/v saline, 1:2:7) or vehicle plus H2CBD (200 mg kg^−1), administered by intraperitoneal injection. The vehicle differed in this case from the anti-seizure study to avoid the potentially confounding effect of alcohol. The number of animals was also limited to the lowest population necessary to establish an effect at the maximum dosage of drug. At 45 minutes post vehicle and drug injections, rats were placed in the center of the EPM and time spent on the open versus closed arms of the maze was recorded. After an interval of two weeks, the same 12 rats were again divided at random into two groups of 6 animals each and dosed as above. Spontaneous locomotor activity was measured 45 minutes after injection by placing the animals in the center of a 16″×16″ arena. Free movement was allowed for 30 minutes and recorded using an automated activity monitoring system.

[4] = system: rodent behavior; experiment: open field test, spontaneous locomotor activity; type: in vivo, rat
Experimental: as §2

[5] = system: cytochrome P450; details: hepatic microsomal metabolism; consistent with CBD; cited from earlier work
[6] = system: murine macrophages; details: consistent with CBD; cited from earlier work
[7] = in contrast to CBD; cited from earlier work
[8] = simulated gastric fluid, within one hour; cited from earlier work

SMILES | maximum seizure severity, median (IQR) [1] | percentage of animals that exhibited tonic-clonic seizures [1] | anticonvulsant action ([1]; 50, 100, 200 mg kg^-1 i.p., maximal protective effect comparable to matching dose of CBD) | blood concentration vs vehicle treated group ([2]; 100 mg/kg i.p., P<0.05) | blood concentration vs vehicle treated group ([2]; 200 mg/kg i.p., P<0.01) | brain tissue concentration vs vehicle treated group ([2]; 200 mg/kg i.p., P<0.01) | percent time spent on the open arms [3] | horizontal distance traveled ([4]; 200 mg kg^-1 i.p., 30 min from 45 minutes after injection, drug vs vehicle, P=0.95) | time in the arena center ([4]; 200 mg kg^-1 i.p., 30 min from 45 minutes after injection, drug vs vehicle, p=0.14) | vertical activity ([4]; 200 mg kg^-1 i.p., 30 min from 45 minutes after injection, drug vs vehicle, p=0.25) | behavioral effects (EPM and open field overall) ([4]; high dosage, 200 mg kg^-1) | effect on cytochrome P450 [5] | antioxidant activity [6] | sedative activity [7] | degradation mainly to Δ8- and Δ9-THCs [8]
CCCCCc1cc(O)c([C@@H]2C=C(C)CC[C@H]2C(C)C)c(O)c1 (relative stereo) [Example H2CBD, 2-(6-Isopropyl-3-methylcyclohex-2-en-1-yl)-5-pentylbenzene-1,3-diol] | 2 (0.25-4.25 IQR) Racine scale | significantly fewer animals | dose-dependent anticonvulsant action | significant concentrations | significant concentrations | significant concentrations | No statistically significant differences | no statistically significant differences | no statistically significant differences | no statistically significant differences | no measurable behavioral effects | inhibitory effect | antioxidant activity | little if any evidence of sedative activity | 
C=C(C)[C@@H]1CCC(C)=C[C@H]1c1c(O)cc(CCCCC)cc1O [CBD, cannabidiol] | 2 (0.25-3.75 IQR) Racine scale | significantly fewer animals |  |  |  | significant concentrations |  |  |  |  |  |  |  |  | nearly complete degradation
